Experimental data: US20230111310A1, “CARBOXYLIC ACID DERIVATIVE-SUBSTITUTED IMINO ARYL COMPOUND, PREPARATION METHOD THEREFOR, HERBICIDAL COMPOSITION AND USE THEREOF” (Qingdao Kingagroot Chemical Compound Co., Ltd., priority 2020, published 2023)

Key:
Assay in all cases: Weeding effect in post-emergence stage
Type in all cases: in vivo
Details in all cases: Dose 15 g/ha; fresh weight control rate level
Digitaria sanguinalis = system: Digitaria sanguinalis
Procedure, shortened: (§1)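 Doses of 500, 250, 125, 60, 30, 15 and 7.5 g/ha, with methyl oleate synergist (1.5 liter/ha) and Tween 80 from acetone solution, applied by spray tower post-emergence (2–3 leaf stage). Weed control scored after 3 further greenhouse weeks, averaged over triplicates.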

Alopecurus japonicus = system: Alopecurus japonicus
Procedure, shortened: as §1

Eleusine indica = system: Eleusine indica
Procedure, shortened: as §1

Setaria viridis = system: Setaria viridis
Procedure, shortened: as §1

Abutilon theophrasti = system: Abutilon theophrasti
Procedure, shortened: as §1

Echinochloa crusgalli = system: Echinochloa crusgalli
Procedure, shortened: as §1

SMILES | Weeding effect in post-emergence stage, Digitaria sanguinalis (level) (Digitaria sanguinalis) | Weeding effect in post-emergence stage, Alopecurus japonicus (level) (Alopecurus japonicus) | Weeding effect in post-emergence stage, Eleusine indica (level) (Eleusine indica) | Weeding effect in post-emergence stage, Setaria viridis (level) (Setaria viridis) | Weeding effect in post-emergence stage, Abutilon theophrasti (level) (Abutilon theophrasti) | Weeding effect in post-emergence stage, Echinochloa crusgalli (level) (Echinochloa crusgalli)
CC(C#N)COC(=O)[C@@H](C)O/N=C/c1cc(-n2c(=O)cc(C(F)(F)F)n(C)c2=O)c(F)cc1Cl (stereo partly drawn) [445(R)] | 5 (Level 5: growth control rate is above 85%) | 5 (Level 5: growth control rate is above 85%) | 5 (Level 5: growth control rate is above 85%) | 5 (Level 5: growth control rate is above 85%) | 5 (Level 5: growth control rate is above 85%) | 5 (Level 5: growth control rate is above 85%)
C[C@@H](O/N=C/c1cc(-n2c(=O)cc(C(F)(F)F)n(C)c2=O)c(F)cc1Cl)C(=O)OCCCC#N [446(R)] | 5 (Level 5: growth control rate is above 85%) | 5 (Level 5: growth control rate is above 85%) | 5 (Level 5: growth control rate is above 85%) | 5 (Level 5: growth control rate is above 85%) | 5 (Level 5: growth control rate is above 85%) | 5 (Level 5: growth control rate is above 85%)
C[C@@H](O/N=C/c1cc(-n2c(=O)cc(C(F)(F)F)n(C)c2=O)c(F)cc1Cl)C(=O)OCC1(C#N)CC1 [447(R)] | 5 (Level 5: growth control rate is above 85%) | 5 (Level 5: growth control rate is above 85%) | 5 (Level 5: growth control rate is above 85%) | 5 (Level 5: growth control rate is above 85%) | 5 (Level 5: growth control rate is above 85%) | 5 (Level 5: growth control rate is above 85%)
C[C@@H](O/N=C/c1cc(-n2c(=O)cc(C(F)(F)F)n(C)c2=O)c(F)cc1Cl)C(=O)OCCN(C)C [448(R)] | 5 (Level 5: growth control rate is above 85%) | 5 (Level 5: growth control rate is above 85%) | 5 (Level 5: growth control rate is above 85%) | 5 (Level 5: growth control rate is above 85%) | 5 (Level 5: growth control rate is above 85%) | 5 (Level 5: growth control rate is above 85%)
C/C(=N\OC(=O)[C@@H](C)O/N=C/c1cc(-n2c(=O)cc(C(F)(F)F)n(C)c2=O)c(F)cc1Cl)C(C)(C)C [449(R)] | 5 (Level 5: growth control rate is above 85%) | 5 (Level 5: growth control rate is above 85%) | 5 (Level 5: growth control rate is above 85%) | 5 (Level 5: growth control rate is above 85%) | 5 (Level 5: growth control rate is above 85%) | 5 (Level 5: growth control rate is above 85%)
